Test results taken from ChEMBL document CHEMBL1127110, “Novel polyamide inducers of HL-60 cellular differentiation” (Bioorg Med Chem Lett, 1993).

Tested on: HL-60
Experiment: The compound was evaluated in vitro for cytotoxicity against HL-60 cell lines
Assay type: functional, cell-based
Conditions: Homo sapiens

| SMILES | IC50 [mM] |
| --- | --- |
| CC(=O)NCCNC(=O)CCNC(C)=O | > 16 |
| CC(=O)NCCCCCCNC(C)=O [HEXAMETHYLENEBISACETAMIDE] | 4 |
| CC(=O)NCCCCN(CCCNC(C)=O)C(C)=O | > 16 |
| CC(=O)NCCC(=O)NCCNC(=O)CCNC(C)=O | 6 |
| CC(=O)NCCCN(CCCCN(CCCNC(C)=O)C(C)=O)C(C)=O | > 16 |
